The values that follow are results of earlier work, collected in patent US20190279737A1, “METHOD OF DISCOVERING NEW DRUG CANDIDATE TARGETING DISORDER-TO-ORDER TRANSITION REGION AND APPARATUS FOR DISCOVERING NEW DRUG CANDIDATE” (INDUSTRY-UNIVERSITY COOPERATION FOUNDATION HANYANG …, priority 2016, published 2019).

The structures appear in SMILES notation.

The target in the data set is Myc (Homo sapiens, UniProt P01106). As to conditions: Follis et al. 2008.
Sequence of Myc (P01106 16-454, species assumed): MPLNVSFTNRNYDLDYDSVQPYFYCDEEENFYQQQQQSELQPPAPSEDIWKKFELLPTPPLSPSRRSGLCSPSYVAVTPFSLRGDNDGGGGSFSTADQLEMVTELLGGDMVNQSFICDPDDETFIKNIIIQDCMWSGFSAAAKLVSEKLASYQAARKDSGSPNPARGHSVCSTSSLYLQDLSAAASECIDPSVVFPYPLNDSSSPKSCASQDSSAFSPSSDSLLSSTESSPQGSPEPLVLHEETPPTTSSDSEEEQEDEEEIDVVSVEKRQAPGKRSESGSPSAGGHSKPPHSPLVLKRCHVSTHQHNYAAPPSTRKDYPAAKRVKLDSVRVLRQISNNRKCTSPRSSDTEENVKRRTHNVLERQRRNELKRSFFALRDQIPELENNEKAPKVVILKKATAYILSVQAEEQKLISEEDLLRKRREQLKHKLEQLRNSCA

For `CCc1ccc(/C=C2/SC(=S)NC2=O)cc1` [10058-F4], the “region of Myc bound” value is recorded as “specifically binds to a 402-412 region of Myc”.
